One test has as its system worms. Further details: method as in PMID 7016122. As to conditions: previous studies; cited from earlier work.
The target in test [1] is T1, Thioredoxin glutathione reductase from S. mansoni (SmTGR) (Schistosoma mansoni, UniProt Q962Y6).
T1 construct: made in house
T1 sequence (Q962Y6 1-598): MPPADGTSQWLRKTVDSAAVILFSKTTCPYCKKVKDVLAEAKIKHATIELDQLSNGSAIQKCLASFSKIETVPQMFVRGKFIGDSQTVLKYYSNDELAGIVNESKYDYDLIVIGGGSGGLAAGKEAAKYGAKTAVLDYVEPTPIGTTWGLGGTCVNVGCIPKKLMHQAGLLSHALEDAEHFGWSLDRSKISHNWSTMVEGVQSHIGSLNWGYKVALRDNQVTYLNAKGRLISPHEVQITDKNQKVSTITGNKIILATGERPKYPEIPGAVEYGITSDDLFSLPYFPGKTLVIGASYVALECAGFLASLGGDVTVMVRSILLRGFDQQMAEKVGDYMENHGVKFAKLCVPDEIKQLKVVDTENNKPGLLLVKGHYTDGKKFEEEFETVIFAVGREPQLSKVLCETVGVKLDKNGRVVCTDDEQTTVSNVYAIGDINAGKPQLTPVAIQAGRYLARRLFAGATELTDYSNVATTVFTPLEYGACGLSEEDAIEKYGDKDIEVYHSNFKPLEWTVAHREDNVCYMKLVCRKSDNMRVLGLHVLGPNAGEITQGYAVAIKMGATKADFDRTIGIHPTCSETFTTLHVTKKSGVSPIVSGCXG
Nature of the test: Endpoint SmTGR fluorescence (ThioGlo) assay. The class given is biochemical. The method, then:
SmTGR protein (1.58 μg/ml) was loaded into each well of black 384-well plates (PerkinElmer, Boston, MA, USA) containing 19 μl of assay buffer I (90 mM Tris-HCl, 10 mM EDTA, pH 7.5, 100 μM NADPH, and 0.48 mg/ml BSA), followed by an addition of 1 μl positive control or test compounds. The plates were sealed and incubated for 50 min at room temperature. […] Following a 1 h incubation, the product was reacted with 30 μl ThioGlo® 1 reagent for 20–30 min, and the fluorescence signal was monitored at an excitation wavelength of 380 nm and an emission wavelength of 515 nm on the EnVision plate reader (PerkinElmer).
An HTS effort was carried out against the compound library described above. […]
Data were analyzed using GraphPad Prism® software (GraphPad, San Diego, CA, USA). […]
Recombinant SmTGR was expressed and purified as previously described. An earlier assay of the coupled activities of SmTGR and peroxiredoxin-2 [13] was adapted to study the activity of SmTGR alone, using the following principle: SmTGR converts NADPH and GSSG to NADP^+ and reduced glutathione (GSH), and GSH production can be detected with ThioGlo®, a maleimide derivative of the naphthopyranone fluorophore which fluoresces upon reacting with free thiol groups such as those present in GSH. […] After ten additional minutes, samples were excited at […] and read for fluorescence at 515 nM.

A further test concerns SmTGR. The arrangement: method as in PMID 17579510. As to conditions: read-out: IC50 documented in the literature; cited from earlier work.

As for `O=C(C1CCCCC1)N1CC(=O)N2CCc3ccccc3C2C1` (stereo not shown) [PZQ, praziquantel], the Worm-killing activity concentration with worms was 0.3 to 1 µM.
`O=C1C=CC(=O)c2c(O)ccc(O)c21` [naphthazarin, Naphthazarin]: the IC50 – broadly, the concentration needed to halve the response being measured – was 1.42 ± 0.08 µM in test [1] and 10 µM in the test on SmTGR. Further, in test [1] (read-out: Inhibition of SmTGR), the inhibition – broadly, the share of the control response that was lost under treatment – at 30 µM is 100%.

Values taken from publication PMC4560900, “High-throughput screening against thioredoxin glutathione reductase identifies novel inhibitors with potential therapeutic value for schistosomiasis” (Infectious Diseases of Poverty, 2015).
